Consider 2 molecules from ChEMBL document CHEMBL1132765, “Synthesis and antibacterial activity of new carbapenems containing isoxazole moiety” (2000).

The term MIC denotes the least concentration at which growth counts as inhibited.

Structures are written as SMILES. Converted amounts (≈) assume the structure as drawn.

In the first assay the target is T1, Dipeptidase 1 (Sus scrofa) (UniProt P22412).
T1 sequence (whole entry): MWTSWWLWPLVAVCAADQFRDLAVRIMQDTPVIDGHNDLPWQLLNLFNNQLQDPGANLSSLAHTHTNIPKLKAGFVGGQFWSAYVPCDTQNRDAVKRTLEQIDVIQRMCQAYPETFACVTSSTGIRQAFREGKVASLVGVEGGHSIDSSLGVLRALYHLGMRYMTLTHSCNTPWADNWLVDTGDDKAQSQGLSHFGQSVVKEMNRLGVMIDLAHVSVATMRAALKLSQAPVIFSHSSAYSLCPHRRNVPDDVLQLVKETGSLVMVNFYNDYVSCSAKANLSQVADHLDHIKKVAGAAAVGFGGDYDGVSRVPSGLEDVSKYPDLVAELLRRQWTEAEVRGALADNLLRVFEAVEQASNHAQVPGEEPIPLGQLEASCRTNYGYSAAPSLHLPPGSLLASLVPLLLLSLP
The assay is described as follows: Relative t1/2 hydrolysis to meropenem by partially purified porcine renal DHP-1. Format: functional.
Settings: not given
For `C[C@@H](O)[C@H]1C(=O)N2C(C(=O)O)=C(S[C@@H]3CN[C@H](C4CCN(C)O4)C3)[C@H](C)[C@H]12` (stereo partly specified), the Relative t1/2 was found to be 1.27.

Molecule `C[C@@H](O)[C@H]1C(=O)N2C(C(=O)O)=C(S[C@@H]3CN[C@H](C(=O)N(C)C)C3)[C@H](C)[C@H]12` [MEROPENEM] displayed a Relative t1/2 of 1.

The subject of another assay is Enterobacter cloacae. The assay is described as follows: In vitro antibacterial activity against Enterobacter cloacae 1321E. Type of assay: functional. The note with it: Enterobacter cloacae; read-out: MIC.
Turning to `C[C@@H](O)[C@H]1C(=O)N2C(C(=O)O)=C(S[C@@H]3CN[C@H](C4CCN(C)O4)C3)[C@H](C)[C@H]12` (stereo partly specified), the MIC was determined as 0.025 µg/mL (≈ 0.0629 µM).

In the case of `C[C@@H](O)[C@H]1C(=O)N2C(C(=O)O)=C(S[C@@H]3CN[C@H](C(=O)N(C)C)C3)[C@H](C)[C@H]12` [MEROPENEM], the MIC is 0.025 µg/mL (≈ 0.0652 µM).

In the next assay the test system is Escherichia coli. The assay is described as follows: In vitro antibacterial activity against Escherichia coli 078. Type of assay: functional. Conditions: Escherichia coli; read-out: MIC.
As to `C[C@@H](O)[C@H]1C(=O)N2C(C(=O)O)=C(S[C@@H]3CN[C@H](C4CCN(C)O4)C3)[C@H](C)[C@H]12` (stereo partly specified), the MIC came to 0.098 µg/mL (≈ 0.247 µM).

On to `C[C@@H](O)[C@H]1C(=O)N2C(C(=O)O)=C(S[C@@H]3CN[C@H](C(=O)N(C)C)C3)[C@H](C)[C@H]12` [MEROPENEM], for which the MIC came to 0.025 µg/mL (≈ 0.0652 µM).

The test system of another assay is Escherichia coli. The assay is described as follows: In vitro antibacterial activity against Escherichia coli 1507E. The note with it: Escherichia coli; read-out: MIC. Type of assay: functional.
`C[C@@H](O)[C@H]1C(=O)N2C(C(=O)O)=C(S[C@@H]3CN[C@H](C4CCN(C)O4)C3)[C@H](C)[C@H]12` (stereo partly specified): the MIC was 0.049 µg/mL (≈ 0.123 µM).

As to `C[C@@H](O)[C@H]1C(=O)N2C(C(=O)O)=C(S[C@@H]3CN[C@H](C(=O)N(C)C)C3)[C@H](C)[C@H]12` [MEROPENEM], the MIC was determined as 0.025 µg/mL (≈ 0.0652 µM).

The subject of the next assay is Klebsiella aerogenes. The assay is described as follows: In vitro antibacterial activity against Klebsiella aerogenes 1522E. Conditions: Klebsiella aerogenes; read-out: MIC. Type of assay: functional.
On to `C[C@@H](O)[C@H]1C(=O)N2C(C(=O)O)=C(S[C@@H]3CN[C@H](C4CCN(C)O4)C3)[C@H](C)[C@H]12` (stereo partly specified), for which the MIC amounted to 0.098 µg/mL (≈ 0.247 µM).

As for `C[C@@H](O)[C@H]1C(=O)N2C(C(=O)O)=C(S[C@@H]3CN[C@H](C(=O)N(C)C)C3)[C@H](C)[C@H]12` [MEROPENEM], the MIC was found to be 0.049 µg/mL (≈ 0.128 µM).

The next assay has as its system Pseudomonas aeruginosa. The assay is described as follows: In vitro antibacterial activity against Pseudomonas aeruginosa 1592E. Type of assay: functional. The note with it: Pseudomonas aeruginosa; read-out: MIC.
On to `C[C@@H](O)[C@H]1C(=O)N2C(C(=O)O)=C(S[C@@H]3CN[C@H](C4CCN(C)O4)C3)[C@H](C)[C@H]12` (stereo partly specified), for which the MIC was 0.391 µg/mL (≈ 0.984 µM).

Turning to `C[C@@H](O)[C@H]1C(=O)N2C(C(=O)O)=C(S[C@@H]3CN[C@H](C(=O)N(C)C)C3)[C@H](C)[C@H]12` [MEROPENEM], the MIC amounted to 0.195 µg/mL (≈ 0.509 µM).

The subject of the next assay is Pseudomonas aeruginosa. The assay is described as follows: In vitro antibacterial activity against Pseudomonas aeruginosa 1771M. Type of assay: functional. The note with it: Pseudomonas aeruginosa; read-out: MIC.
For `C[C@@H](O)[C@H]1C(=O)N2C(C(=O)O)=C(S[C@@H]3CN[C@H](C4CCN(C)O4)C3)[C@H](C)[C@H]12` (stereo partly specified), the MIC is 0.195 µg/mL (≈ 0.491 µM).

For the molecule `C[C@@H](O)[C@H]1C(=O)N2C(C(=O)O)=C(S[C@@H]3CN[C@H](C(=O)N(C)C)C3)[C@H](C)[C@H]12` [MEROPENEM], the MIC worked out at 0.049 µg/mL (≈ 0.128 µM).

The test system of a further assay is Pseudomonas aeruginosa. The assay is described as follows: In vitro antibacterial activity against Pseudomonas aeruginosa 9027. Type of assay: functional. The note with it: Pseudomonas aeruginosa; read-out: MIC.
Consider `C[C@@H](O)[C@H]1C(=O)N2C(C(=O)O)=C(S[C@@H]3CN[C@H](C4CCN(C)O4)C3)[C@H](C)[C@H]12` (stereo partly specified), for which the MIC was 0.391 µg/mL (≈ 0.984 µM).

With `C[C@@H](O)[C@H]1C(=O)N2C(C(=O)O)=C(S[C@@H]3CN[C@H](C(=O)N(C)C)C3)[C@H](C)[C@H]12` [MEROPENEM], the MIC came to 0.195 µg/mL (≈ 0.509 µM).

The next assay deals with Salmonella typhimurium. The assay is described as follows: In vitro antibacterial activity against Salmonella Typhimurium. Type of assay: functional, Salmonella enterica subsp. enterica serovar Typhimurium. The note with it: Salmonella enterica; read-out: MIC.
On to `C[C@@H](O)[C@H]1C(=O)N2C(C(=O)O)=C(S[C@@H]3CN[C@H](C4CCN(C)O4)C3)[C@H](C)[C@H]12` (stereo partly specified), for which the MIC came out at 0.098 µg/mL (≈ 0.247 µM).

Consider `C[C@@H](O)[C@H]1C(=O)N2C(C(=O)O)=C(S[C@@H]3CN[C@H](C(=O)N(C)C)C3)[C@H](C)[C@H]12` [MEROPENEM], for which the MIC stood at 0.049 µg/mL (≈ 0.128 µM).

The test system of a further assay is Staphylococcus aureus. The assay is described as follows: In vitro antibacterial activity against Staphylococcus aureus 285. Format: functional. The note with it: Staphylococcus aureus; read-out: MIC.
With `C[C@@H](O)[C@H]1C(=O)N2C(C(=O)O)=C(S[C@@H]3CN[C@H](C4CCN(C)O4)C3)[C@H](C)[C@H]12` (stereo partly specified), the MIC is 0.098 µg/mL (≈ 0.247 µM).

Consider `C[C@@H](O)[C@H]1C(=O)N2C(C(=O)O)=C(S[C@@H]3CN[C@H](C(=O)N(C)C)C3)[C@H](C)[C@H]12` [MEROPENEM], for which the MIC was found to be 0.195 µg/mL (≈ 0.509 µM).

Another assay has as its system Staphylococcus aureus. The assay is described as follows: In vitro antibacterial activity against Staphylococcus aureus 503. Format: functional. The note with it: Staphylococcus aureus; read-out: MIC.
For the molecule `C[C@@H](O)[C@H]1C(=O)N2C(C(=O)O)=C(S[C@@H]3CN[C@H](C4CCN(C)O4)C3)[C@H](C)[C@H]12` (stereo partly specified), the minimal inhibitory concentration (MIC) was 0.049 µg/mL (≈ 0.123 µM).

Turning to `C[C@@H](O)[C@H]1C(=O)N2C(C(=O)O)=C(S[C@@H]3CN[C@H](C(=O)N(C)C)C3)[C@H](C)[C@H]12` [MEROPENEM], the MIC came to 0.098 µg/mL (≈ 0.256 µM).

For another assay, the system named is Staphylococcus aureus. The assay is described as follows: In vitro antibacterial activity against Staphylococcus aureus SG511. Format: functional. Conditions: Staphylococcus aureus; read-out: MIC.
For the molecule `C[C@@H](O)[C@H]1C(=O)N2C(C(=O)O)=C(S[C@@H]3CN[C@H](C4CCN(C)O4)C3)[C@H](C)[C@H]12` (stereo partly specified), the MIC was determined as 0.098 µg/mL (≈ 0.247 µM).

`C[C@@H](O)[C@H]1C(=O)N2C(C(=O)O)=C(S[C@@H]3CN[C@H](C(=O)N(C)C)C3)[C@H](C)[C@H]12` [MEROPENEM]: the MIC came out at 0.195 µg/mL (≈ 0.509 µM).

The test system of a further assay is Streptococcus pyogenes. The assay is described as follows: In vitro antibacterial activity against Streptococcus pyogenes 308A. Format: functional. The note with it: Streptococcus pyogenes; read-out: MIC.
For the molecule `C[C@@H](O)[C@H]1C(=O)N2C(C(=O)O)=C(S[C@@H]3CN[C@H](C4CCN(C)O4)C3)[C@H](C)[C@H]12` (stereo partly specified), the MIC came to 0.007 µg/mL (≈ 0.0176 µM).

As for `C[C@@H](O)[C@H]1C(=O)N2C(C(=O)O)=C(S[C@@H]3CN[C@H](C(=O)N(C)C)C3)[C@H](C)[C@H]12` [MEROPENEM], the MIC stood at 0.013 µg/mL (≈ 0.0339 µM).
